{"source": "patent US20140243302A1", "about": "“BRIDGED BICYCLIC COMPOUNDS FOR THE TREATMENT OF BACTERIAL INFECTIONS” (priority 2011, published 2014)", "test_system": "Staphylococcus aureus Smith", "test": "MIC assay, modified agar dilution (CLSI), S. aureus Smith", "assay_type": "cell-based", "settings": "Staphylococcus aureus, agar dilution, 35° C., 16-20 hr; lowest concentration that completely inhibited growth; read-out: S_aureus_Smith_WT_MIC", "method": "The potency of antibacterial agents was measured using the Minimal Inhibitory Concentration (MIC) assay. The assay measures the ability of test agents to inhibit the growth of bacteria on agar-containing medium.\nThe bacterial test strains used were exemplified by Staphylococcus aureus Smith, Enterococcus faecium A2373, Streptococcus pneumoniae IID554, and Escherichia coli ATCC 25922. All strains were maintained as frozen stocks held at −80° C. in skim milk. Other bacterial test strains are well known to those skilled in the art and can be used for testing.\nMueller Hinton Agar (MHA BBL; Becton Dickinson and Company, Sparks, Md.) was used as the medium. MHA was supplemented with 5% defibrinated horse blood (DHB; Nippon Biotest Laboratories inc.) to support the growth of S. pneumoniae and E. faecium.\nMIC values were determined using a modified agar dilution procedure described by the Clinical and Laboratory Standards Institute (CLSI; Methods for Dilution Antimicrobial Susceptibility Tests for Bacteria That Grow Aerobically; Approved Standard—Eighth Edition. CLSI document M07-A8 [ISBN 1-56238-689-1]. Clinical and Laboratory Standards Institute, 940 West Valley Road, Suite 1400, Wayne, Pa. 19087-1898 USA, 2009).\nStock solutions (6.4 mgmL) of test compounds were prepared in 100% ultrapure dimethyl sulfoxide (DMSO; source) on the day of the assay. Subsequent serial dilutions were performed to generate solutions with concentrations ranging from 6.4 to 0.0002 mgmL in 100% DMSO.\nAgar medium containing test compound was prepared by adding the dilutions of antimicrobial solution to molten MHA at a temperature of 45-50° C. The agar and antimicrobial solution were mixed thoroughly, poured into petri dishes, and allowed to solidify at room temperature. The final concentration of test compounds in the MHA medium ranged from 128 to 0.001 μg/mL with two-fold dilutions. MHA plates lacking antibacterial compound were used for growth controls.\nPrior to susceptibility testing, the bacterial isolates were removed from frozen storage, thawed at room temperature, sub-cultured to MHA medium and incubated overnight at 35° C. S. pneumoniae and E. faecium were subcultured on MHA supplemented with 5% DHB at 35° C. with […]. Colonies from each plate were suspended in normal saline. This suspension was adjusted to the turbidity of a 0.5 McFarland standard, 1-2×10^8 colony forming units (CFU) per mL, and diluted 100-fold to 1-2×10^6 CFUmL.\nSuspensions of bacterial cultures were applied to the surface of MHA plates containing test compound as well as to a growth control plate lacking test compound using an inoculum-replicating device with 4 mm pins. The replicating device applied 5 uL of the bacterial suspension such that each spot contained approx. 1×10^4 CFU. Plates were dried for about 40 min and incubated at 35° C. for 16-20 hr prior to scoring.", "data": [{"smiles": "COc1ccc2ncc(Cl)c(CCC34CCC(NCc5ccc6c(n5)NC(=O)CO6)(CC3)CC4)c2n1.Cl", "note": "[Example 5, 6-((4-(2-(3-Chloro-6-methoxy-1,5-naphthyridin-4-yl)ethyl)bicyclo[2.2.2]octan-1-ylamino)methyl)-2H-pyrido[3,2-b][1,4]oxazin-3(4H)-one Hydrochloride]", "values": [{"measurement": "MIC", "result": 0.031, "unit": "µg/mL"}]}, {"smiles": "COc1ccc2ncc(Cl)c(C#CC34CCC(NCc5ccc6c(n5)NC(=O)CO6)(CC3)CC4)c2n1.Cl", "note": "[Example 6, 6-((4-((3-Chloro-6-methoxy-1,5-naphthyridin-4-yl)ethynyl)bicyclo[2.2.2]octan-1-ylamino)methyl)-2H-pyrido[3,2-b][1,4]oxazin-3(4H)-one Hydrochloride]", "values": [{"measurement": "MIC", "result": 0.031, "unit": "µg/mL"}]}, {"smiles": "O=C1COc2ccc(CNC34CCC(/C=C\\c5c(Cl)cnc6ccc(O)nc56)(CC3)CC4)nc2N1", "note": "[Example 7, (Z)-6-((4-(2-(3-Chloro-6-hydroxy-1,5-naphthyridin-4-yl)vinyl)bicyclo[2.2.2]octan-1-ylamino)methyl)-2H-pyrido[3,2-b][1,4]oxazin-3(4H)-one]", "values": [{"measurement": "MIC", "result": 0.5, "unit": "µg/mL"}]}, {"smiles": "COc1ccc2ncc(Cl)c(/C=C\\C34CCC(NCc5ccc6c(n5)NC(=O)CO6)(CC3)CC4)c2n1", "note": "[Example 8, (Z)-6-((4-(2-(3-Chloro-6-methoxy-1,5-naphthyridin-4-yl)vinyl)bicyclo[2.2.2]octan-1-ylamino)methyl)-2H-pyrido[3,2-b][1,4]oxazin-3(4H)-one]", "values": [{"measurement": "MIC", "result": 0.5, "unit": "µg/mL"}]}, {"smiles": "O=C1COc2ccc(CNC34CCC(CCc5c(Cl)cnc6ccc(O)nc56)(CC3)CC4)nc2N1", "note": "[Example 9, 6-((4-(2-(3-Chloro-6-hydroxy-1,5-naphthyridin-4-yl)ethyl)bicyclo[2.2.2]octan-1-ylamino)methyl)-2H-pyrido[3,2-b][1,4]oxazin-3(4H)-one]", "values": [{"measurement": "MIC", "result": 0.125, "unit": "µg/mL"}]}, {"smiles": "COc1ccc2ncc(Cl)c(/C=C/C34CCC(NCc5ccc6c(n5)NC(=O)CO6)(CC3)CC4)c2n1.Cl", "note": "[Example 10, (E)-6-((4-(2-(3-Chloro-6-methoxy-1,5-naphthyridin-4-yl)vinyl)bicyclo[2.2.2]octan-1-ylamino)methyl)-2H-pyrido[3,2-b][1,4]oxazin-3(4H)-one Hydrochloride]", "values": [{"measurement": "MIC", "result": 0.016, "unit": "µg/mL"}]}, {"smiles": "Cc1cccc2sc(C(=O)C34CCC(NCc5ccc6c(n5)NC(=O)CO6)(CC3)CC4)nc12", "note": "[Example 11, 6-((4-(4-Methylbenzo[d]thiazole-2-carbonyl)bicyclo[2.2.2]octan-1-ylamino)methyl)-2H-pyrido[3,2-b][1,4]oxazin-3(4H)-one]", "values": [{"measurement": "MIC", "result": 2, "unit": "µg/mL"}]}, {"smiles": "COc1ccc2ncc(F)c(CCC34CCC(NCc5ccc6c(n5)NC(=O)CO6)(CC3)C4)c2n1", "note": "[Example 12, 6-((4-(2-(3-Fluoro-6-methoxy-1,5-naphthyridin-4-yl)ethyl)bicyclo[2.2.1]heptan-1-ylamino)methyl)-2H-pyrido[3,2-b][1,4]oxazin-3(4H)-one]", "values": [{"measurement": "MIC", "result": 0.25, "unit": "µg/mL"}]}, {"smiles": "COc1ccc2ncc(Cl)c(OCC34CCC(NCc5ccc6c(n5)NC(=O)CO6)(CC3)CC4)c2n1", "note": "[Example 15, 6-((4-((3-Chloro-6-methoxy-1,5-naphthyridin-4-yloxy)methyl)bicyclo[2.2.2]octan-1-ylamino)methyl)-2H-pyrido[3,2-b][1,4]oxazin-3(4H)-one]", "values": [{"measurement": "MIC", "result": 0.031, "unit": "µg/mL"}]}, {"smiles": "COc1ccc2ncc(Cl)c(CCC34CCC(NCc5ccc6c(n5)NC(=O)CO6)(CC3)CO4)c2n1.Cl", "note": "[Example 16, 6-((1-(2-(3-Chloro-6-methoxy-1,5-naphthyridin-4-yl)ethyl)-2-oxabicyclo[2.2.2]octan-4-ylamino)methyl)-2H-pyrido[3,2-b][1,4]oxazin-3(4H)-one Hydrochloride]", "values": [{"measurement": "MIC", "result": 0.016, "unit": "µg/mL"}]}, {"smiles": "COc1ccc2nccc(CCC34CCC(NCc5ccc6c(n5)NC(=O)CO6)(CC3)CO4)c2n1.Cl", "note": "[Example 17, 6-((1-(2-(6-Methoxy-1,5-naphthyridin-4-yl)ethyl)-2-oxabicyclo[2.2.2]octan-4-ylamino)methyl)-2H-pyrido[3,2-b][1,4]oxazin-3(4H)-one Hydrochloride]", "values": [{"measurement": "MIC", "result": 0.031, "unit": "µg/mL"}]}, {"smiles": "COc1ccc2ncc(F)c(/C=C/C34CCC(NCc5ccc6c(n5)NC(=O)CO6)(CC3)CO4)c2n1", "note": "[Example 19, (E)-6-((1-(2-(3-Fluoro-6-methoxy-1,5-naphthyridin-4-yl)vinyl)-2-oxabicyclo[2.2.2]octan-4-ylamino)methyl)-2H-pyrido[3,2-b][1,4]oxazin-3(4H)-one]", "values": [{"measurement": "MIC", "result": 0.008, "unit": "µg/mL"}]}, {"smiles": "COc1ccc2ncc(F)c(CC(OC)C34CCC(NCc5ccc6c(n5)NC(=O)CO6)(CC3)CO4)c2n1.Cl", "note": "(centres unmarked) [Example 22, 6-((1-(2-(3-Fluoro-6-methoxy-1,5-naphthyridin-4-yl)-1-methoxyethyl)-2-oxabicyclo[2.2.2]octan-4-ylamino)methyl)-2H-pyrido[3,2-b][1,4]oxazin-3(4H)-one Hydrochloride]", "values": [{"measurement": "MIC", "result": 0.25, "unit": "µg/mL"}]}, {"smiles": "COc1ccc2ncc(F)c(CC(=O)C34CCC(NCc5ccc6c(n5)NC(=O)CO6)(CC3)CO4)c2n1", "note": "[Example 23, 6-((1-(2-(3-Fluoro-6-methoxy-1,5-naphthyridin-4-yl)acetyl)-2-oxabicyclo[2.2.2]octan-4-ylamino)methyl)-2H-pyrido[3,2-b][1,4]oxazin-3(4H)-one]", "values": [{"measurement": "MIC", "result": 0.125, "unit": "µg/mL"}]}, {"smiles": "COc1ccc2ncc(F)c(CCC34CCC(NCc5nc6ccccc6n(C)c5=O)(CC3)CO4)c2n1", "note": "[Example 24, 3-((1-(2-(3-Fluoro-6-methoxy-1,5-naphthyridin-4-yl)ethyl)-2-oxabicyclo[2.2.2]octan-4-ylamino)methyl)-1-methylquinoxalin-2(1H)-one]", "values": [{"measurement": "MIC", "result": 4, "unit": "µg/mL"}]}, {"smiles": "O=C1COc2ccc(CNC34CCC(CCc5c(F)cnc6ccc(N7CCOCC7)nc56)(CC3)OC4)nc2N1", "note": "[Example 28, 6-((1-(2-(3-Fluoro-6-morpholino-1,5-naphthyridin-4-yl)ethyl)-2-oxabicyclo[2.2.2]octan-4-ylamino)methyl)-2H-pyrido[3,2-b][1,4]oxazin-3(4H)-one]", "values": [{"measurement": "MIC", "result": 0.5, "unit": "µg/mL"}]}, {"smiles": "CN(C)c1ccc2ncc(F)c(CCC34CCC(NCc5ccc6c(n5)NC(=O)CO6)(CC3)CO4)c2n1", "note": "[Example 29, 6-((1-(2-(6-(Dimethylamino)-3-fluoro-1,5-naphthyridin-4-yl)ethyl)-2-oxabicyclo[2.2.2]octan-4-ylamino)methyl)-2H-pyrido[3,2-b][1,4]oxazin-3(4H)-one]", "values": [{"measurement": "MIC", "result": 0.25, "unit": "µg/mL"}]}, {"smiles": "Nc1ccc2ncc(F)c(CCC34CCC(NCc5ccc6c(n5)NC(=O)CO6)(CC3)CO4)c2n1", "note": "[Example 30, 6-((1-(2-(6-Amino-3-fluoro-1,5-naphthyridin-4-yl)ethyl)-2-oxabicyclo[2.2.2]octan-4-ylamino)methyl)-2H-pyrido[3,2-b][1,4]oxazin-3(4H)-one]", "values": [{"measurement": "MIC", "result": 2, "unit": "µg/mL"}]}, {"smiles": "N#Cc1ccc2ncc(F)c(CCC34CCC(NCc5ccc6c(n5)NC(=O)CO6)(CC3)CO4)c2n1", "note": "[Example 31, 7-Fluoro-8-(2-(4-((3-oxo-3,4-dihydro-2H-pyrido[3,2-b][1,4]oxazin-6-yl)methylamino)-2-oxabicyclo[2.2.2]octan-1-yl)ethyl)-1,5-naphthyridine-2-carbonitrile]", "values": [{"measurement": "MIC", "result": 0.063, "unit": "µg/mL"}]}, {"smiles": "CCOC(=O)COc1ccc2ncc(F)c(CCC34CCC(NCc5ccc6c(n5)NC(=O)CO6)(CC3)CO4)c2n1", "note": "[Example 32, Ethyl 2-(7-Fluoro-8-(2-(4-((3-oxo-3,4-dihydro-2H-pyrido[3,2-b][1,4]oxazin-6-yl)methylamino)-2-oxabicyclo[2.2.2]octan-1-yl)ethyl)-1,5-naphthyridin-2-yloxy)acetate]", "values": [{"measurement": "MIC", "result": 0.25, "unit": "µg/mL"}]}, {"smiles": "COCCOc1ccc2ncc(F)c(CCC34CCC(NCc5ccc6c(n5)NC(=O)CO6)(CC3)CO4)c2n1", "note": "[Example 33, 6-((1-(2-(3-Fluoro-6-(2-methoxyethoxy)-1,5-naphthyridin-4-yl)ethyl)-2-oxabicyclo[2.2.2]octan-4-ylamino)methyl)-2H-pyrido[3,2-b][1,4]oxazin-3(4H)-one]", "values": [{"measurement": "MIC", "result": 0.063, "unit": "µg/mL"}]}, {"smiles": "Cl.O=C1COc2ccc(CNC34CCC(CCc5c(F)cnc6ccc(OCCO)nc56)(CC3)OC4)nc2N1", "note": "[Example 34, 6-((1-(2-(3-Fluoro-6-(2-hydroxyethoxy)-1,5-naphthyridin-4-yl)ethyl)-2-oxabicyclo[2.2.2]octan-4-ylamino)methyl)-2H-pyrido[3,2-b][1,4]oxazin-3(4H)-one Hydrochloride]", "values": [{"measurement": "MIC", "result": 0.031, "unit": "µg/mL"}]}, {"smiles": "Cl.O=C1COc2ccc(CNC34CCC(CCc5c(F)cnc6ccc(OCCCO)nc56)(CC3)OC4)nc2N1", "note": "[Example 35, 6-((1-(2-(3-Fluoro-6-(3-hydroxypropoxy)-1,5-naphthyridin-4-yl)ethyl)-2-oxabicyclo[2.2.2]octan-4-ylamino)methyl)-2H-pyrido[3,2-b][1,4]oxazin-3(4H)-one Hydrochloride]", "values": [{"measurement": "MIC", "result": 0.016, "unit": "µg/mL"}]}]}
